The target of assay [1] is asymmetrically modified H3K9me3-mononucleosomes. Briefly: SPR, immobilized asymmetric H3K9me3 mononucleosome. Also on record: species or system Xenopus laevis. As to conditions: SPR titration 0.024 to 50 µM, asymmetrically modified mononucleosome at 950 RU, one site-specific binding model; read-out: apparent Kd (Supplementary Fig. 8k).
Assay [2] concerns H3K9me3 oligonucleosomal templates containing tailless H2A, H2B or H4. Briefly: Chromatin sedimentation (clustering), H3K9me3 oligonucleosomes with tailless histones. Format: biochemical, Xenopus laevis. As to conditions: 150 mM NaCl, n=3. As to the method:
Figure 3 hHP1β clusters oligonuclesomal arrays in dependence of H3K9me3. (a) Oligonucleosomes (2.5 nM) were incubated with increasing concentrations of hHP1β WT or I161A at 150 mM NaCl. DNA remaining in the supernatant after centrifugation was incubated with EtBr and measured by fluorescence reading. Data were normalized to amounts in absence of added protein. Averages of three independent experiments are plotted; error bars represent s.d.; n=3. (b) Analysis of the hydrodynamic radius of oligonucleosomes (10 nM; DNA labelled with ATTO 610) in the presence of increasing concentrations of hHP1β WT or I161A by FCS at 150 mM NaCl. For details on experimental setup see Supplementary Fig. 3. Error bars represent s.d.; n=3. (c) Oligonucleosomes were reconstituted after mixing H3K9me0 and H3K9me3 octamers at different ratio. […] (d) Precipitation behaviour of oligonucleosomes (2.5 nM) was analysed at different concentrations of NaCl with hHP1β WT at saturating concentration. […] Precipitated material was analysed by western blotting. […] Complexes were fixed with 0.05% (v/v) glutaraldehyde, spotted on mica surfaces and analysed by scanning force microscopy. […] (h) Quantification of results representatively shown in g according to the classification on the top: A, extended; B, partially condensed; C, fully condensed; D; aggregates; n>50 for each condition. […]

“Also recorded” adds a separate entry of the source.

Regarding “hHP1β WT: recombinant human heterochromatin protein 1β (GenBank NM_001127228), 185 aa”, the Kd in assay [1] is 7.5 µM. Besides, the “clustering of oligonucleosomes with tailless histones” value in assay [2] is listed as “clustered H3K9me3 oligonucleosomes containing tailless H2A or H2B as efficiently as H3K9me3-oligonucleosomes containing WT core histones; also recorded: the effect on H3K9me3 oligonucleosomes containing tailless H4 was impaired”.

The record behind these values is publication PMC4838890, “Dynamic and flexible H3K9me3 bridging via HP1β dimerization establishes a plastic state of condensed chromatin” (Nature Communications, 2016).
